In article PMC6792352, “Limited Chemical Structural Diversity Found to Modulate Thyroid Hormone Receptor in the Tox21 Chemical Library” (Environmental Health Perspectives, 2019) one finds CC50 data, which are given here for 62 compounds.

Counter-ions that a name gives are not always drawn.

For orientation: CC50 means the concentration at which the toxic effect on the cells reaches its halfway point. Higher therefore signals better tolerance by the cells.

The nature of one series: in vitro. Conditions: rat, gh3-tre-luc cells, AC50 (uM) modified / 1000.
Compound `CCCC(=O)c1ccccc1` [Butyrophenone] showed a half-maximal cytotoxic concentration (CC50) at 24 h of more than 90 µM.
The same measure, in the same setting: the result for `CCCCCCOC(=O)CC(CC(=O)OCCCCCC)(OC(=O)CCC)C(=O)OCCCCCC` [Butyryl trihexyl citrate] reads more than 90 µM; that for `CCCCCCCCCCCCCCCS(=O)(=O)Oc1ccccc1` [C10-21 alkanesulfonic acids phenyl esters], more than 50 µM.
The same measure, in the same setting: the same measure for `O=C(NOCC1CC1)c1ccc(F)c(F)c1Nc1ccc(I)cc1Cl` [C.I. 1040]: 21.1 µM; for `Cc1cc(C(=C2C=CC(=Nc3ccc(S(=O)(=O)O)cc3)C=C2)c2ccc(Nc3ccc(S(=O)(=O)O)cc3)cc2)cc(S(=O)(=O)O)c1N` [C.I. Acid Blue 22]: more than 60 µM; for `O=C1C(c2[nH]c3ccc(S(=O)(=O)O)cc3c2O)=Nc2ccc(S(=O)(=O)O)cc21` [C.I. Acid Blue 74]: more than 90 µM.
In turn, `O=S(=O)(O)c1ccc(N=Nc2c(O)ccc3ccccc23)cc1` [C.I. Acid Orange 7] yielded a CC50 at 24 h of 44.3 µM.
`Cc1cc(S(=O)(=O)O)ccc1N=Nc1c(O)ccc2ccccc12` [C.I. Acid Orange 8, monosodium salt] returned a CC50 at 24 h of 19.3 µM. This CC50 at 24 h lies about 2.3-fold lower than the previous one.
Compound `Cc1ccc(N/N=c2\c(=O)cc/c(=N/Nc3ccc(S(=O)(=O)O)cc3)c2=O)c(C)c1` [C.I. Acid Orange 24, monosodium salt] had a half-maximal cytotoxic concentration (CC50) at 24 h of 59.4 µM.
The same measure, in the same setting: the same measure for `CC(=O)Nc1cc(S(=O)(=O)O)cc2cc(S(=O)(=O)O)c(N=Nc3ccccc3)c(O)c12` [C.I. Acid Red 1]: 53.1 µM.
On the same count and under the same terms, the same measure for `CCN(CC)c1ccc2c(-c3ccc(S(=O)(=O)O)cc3S(=O)(=O)[O-])c3ccc(=[N+](CC)CC)cc-3oc2c1` [C.I. Acid Red 52]: 13.4 µM; for `COc1ccccc1N=Nc1c(S(=O)(=O)O)cc2cc(S(=O)(=O)O)cc(NC(C)=O)c2c1O` [C.I. Acid Violet 12, disodium salt]: 36.9 µM; for `CC1=NN(c2cc(Cl)c(S(=O)(=O)O)cc2Cl)C(=O)C1N=Nc1ccc(S(=O)(=O)O)cc1` (stereo not drawn) [C.I. Acid Yellow 17, disodium salt]: 92.5 µM.
The same measure, in the same setting: the same measure for `CC1=NN(c2cc(S(=O)(=O)O)ccc2Cl)C(=O)C1N=Nc1ccccc1` (stereo not drawn) [C.I. Acid Yellow 34, monosodium salt]: 92.1 µM; for `Nc1ccc(N=Nc2ccccc2)c(N)c1` [C.I. Basic Orange 2]: 64.1 µM.
`Cc1cc(-c2ccc(/N=N/c3c(S(=O)(=O)O)cc4cc(S(=O)(=O)O)cc(N)c4c3O)c(C)c2)ccc1/N=N/c1c(S(=O)(=O)O)cc2cc(S(=O)(=O)O)cc(N)c2c1O` [C.I. Direct Blue 14] displayed a half-maximal cytotoxic concentration (CC50) at 24 h of 22.8 µM. This CC50 at 24 h is about 2.8-fold lower than that of the compound before.
The same measure, in the same setting: the result for `Cc1cc(-c2ccc(N=Nc3cc(S(=O)(=O)O)c4ccccc4c3N)c(C)c2)ccc1N=Nc1cc(S(=O)(=O)O)c2ccccc2c1N` [C.I. Direct Red 2] reads 62.5 µM; that for `O=C(Nc1ccc2c(O)c(N=Nc3ccc(N=Nc4ccc(S(=O)(=O)O)cc4)cc3)c(S(=O)(=O)O)cc2c1)c1ccccc1` [C.I. Direct Red 81 disodium salt], 35.6 µM; that for `CCOc1ccc(N=Nc2ccc(/C=C/c3ccc(N=Nc4ccc(OCC)cc4)cc3S(=O)(=O)O)c(S(=O)(=O)O)c2)cc1` [C.I. Direct Yellow 12], 42.7 µM.
`O=C1c2c(O)ccc(Nc3ccc(CCO)cc3)c2C(=O)c2c([N+](=O)[O-])ccc(O)c21` [C.I. Disperse Blue 27] returned a CC50 at 24 h of 63.1 µM.
On the same count and under the same terms, the same measure for `CCN(CCC#N)c1ccc(N=Nc2c(Cl)cc([N+](=O)[O-])cc2Cl)cc1` [C.I. Disperse Orange 37]: 33.4 µM; for `O=C1c2ccccc2C(=O)C1c1nc2ccccc2c(Br)c1O` [C.I. Disperse Yellow 64]: more than 90 µM; for `O=S(=O)(O)c1ccc(Nc2nc(Nc3ccc(/C=C/c4ccc(Nc5nc(Nc6ccc(S(=O)(=O)O)cc6)nc(N(CCO)CCO)n5)cc4S(=O)(=O)O)c(S(=O)(=O)O)c3)nc(N(CCO)CCO)n2)cc1` [C.I. Fluorescent Brightener 220]: more than 60 µM.
The same measure, in the same setting: the result for `CCCN(CCC)C(=O)CN` [C.I. Solvent Black 5] reads 3.55 µM.
Still for that read-out and setting: the result for `Cc1ccccc1/N=N/c1ccc(/N=N/c2c(O)ccc3ccccc23)c(C)c1` [C.I. Solvent Red 24] reads more than 50 µM; that for `COc1ccc2sc(C(=O)Nc3nnn[nH]3)c(OC(C)C)c2c1` [CI-959], 6.07 µM.
Consider `Cc1cc2c3c(c1)C(c1ccccc1)=N[C@@H](NC(=O)c1ccncc1)C(=O)N3CC2` [CI-1018], for which the CC50 at 24 h was more than 90 µM.
Regarding `Cc1cc(SC2=C(O)C[C@@](CCc3ccc(N)cc3)(C(C)C)OC2=O)c(C(C)(C)C)cc1CO` [CI-1029], the half-maximal cytotoxic concentration (CC50) at 24 h is more than 90 µM.
For `Nc1cc2c3c(c1)C(c1ccccc1)=N[C@@H](NC(=O)c1cccnc1)C(=O)N3CC2` [CI-1044], the half-maximal cytotoxic concentration (CC50) at 24 h was more than 90 µM.
On to `Cc1nccn1-c1ccc(Sc2cccc(C3(C(N)=O)CCOCC3)c2)cc1` [CJ-013610], for which the CC50 at 24 h worked out at 42.6 µM.
Still for that read-out and setting: the result for `NC(=O)N(O)[C@@H]1C=C[C@H](Oc2cccc(Oc3ccc(F)cc3)c2)C1` [CJ-013790] reads more than 90 µM; that for `O=C(O)c1cccc(C[C@@H]2COc3ccc(OCc4nc5cc(F)ccc5s4)cc3[C@@H]2O)c1` [CP-085958], more than 90 µM; that for `O=C(O)C1(c2ccc3c(c2)OC[C@H](Cc2ccc(-c4ccccc4)cc2)[C@H]3O)CCCC1` [CP-105696], 50.9 µM.
Same read-out and setting: the same measure for `C[C@H](Cc1ccc(OCC(=O)O)cc1)NC[C@H](O)c1csc(C(F)(F)F)n1` [CP-114271]: more than 90 µM.
Consider `CCc1nn(C2CCCCC2)c2cc(C3(C#N)CCC(C(=O)O)CC3)ccc12` (stereo not drawn) [CP-401387], for which the cytotoxic concentration (CC50) at 24 h was 49.9 µM.
On the same count and under the same terms, the same measure for `CNCc1ccc(NC(=O)c2c[nH]c3c2C(=O)CCC3)cc1` [CP-409092]: more than 90 µM; for `CCOc1cccc(C2(N3CCN(c4ccccc4)CC3)CCC(C)CC2)c1` (stereo not drawn) [CP-422935]: more than 90 µM.
Still for that read-out and setting: the same measure for `CC(C)(O)c1coc(S(=O)(=O)NC(=O)Nc2c3c(cc4c2CCC4)CCC3)c1` [CP-456773]: more than 90 µM; for `CC(C)(O)c1ccc(CNC(=O)c2cccnc2Oc2ccc(F)cc2)cc1` [CP-457677]: more than 90 µM; for `CCOc1ccc2[nH]cc(C(=O)NCc3ccccc3)c(=O)c2n1` [CP-457920]: more than 90 µM.
In turn, `CC(C)c1cccc(C(C)C)c1NC(=O)NS(=O)(=O)c1cc(C(C)(C)O)co1` [CP-465394] came in with a CC50 at 24 h of more than 90 µM.
Still for that read-out and setting: the result for `O=C(O)CCN(C1(C(=O)NO)CCCC1)S(=O)(=O)c1ccc(Oc2ccc(F)cc2)cc1` [CP-471358] reads more than 90 µM.
The same measure, in the same setting: the result for `O=C(NO)C1(NS(=O)(=O)c2ccc(Oc3ccc(F)cc3)cc2)CCOCC1` [CP-544439] reads more than 90 µM.
On to `CNCc1cc(F)ccc1Oc1ccc(Cl)c(Cl)c1` [CP-607366], for which half-maximal cytotoxicity (CC50 at 24 h) was put at 77.7 µM. In other words, the double-digit micromolar range.
Still for that read-out and setting: the result for `CNC(=O)[C@H]1O[C@@H](n2cnc3c(NCc4cc(Cl)ccc4OCc4cc(C)no4)ncnc32)[C@H](O)[C@@H]1N` [CP-608039] reads more than 90 µM; that for `CC(C)(O)c1ccc(CNC(=O)c2cccnc2Oc2ccc3nonc3c2)cc1` [CP-612372], more than 90 µM.
The same measure, in the same setting: the same measure for `Cc1cc(NC(=O)C(=O)O)cc(C)c1Oc1ccc(O)c2c1CCC2` [CP-634384]: more than 90 µM; for `Cc1nc(C)nc(N2C[C@@H](C)N(c3ccnc([C@@H](C)O)n3)[C@@H](C)C2)n1` [CP-642931]: more than 50 µM; for `C[C@@H](Oc1ccc(CNC(=O)c2cccnc2Oc2ccc3c(c2)OCO3)c(F)c1)C(=O)O` [CP-671305]: more than 90 µM.
Same read-out and setting: the same measure for `CC[C@H]1CC[C@H](NCc2cc3c(cc2OC)[C@H]2C[C@H]2C(=O)N3C)[C@H](c2ccccc2)N1` [CP-728663]: 35.3 µM.
Consider `CC(C)c1nnc2ccc(-c3ocnc3-c3cc(F)ccc3F)cn12` [CP-863187], for which the CC50 at 24 h was more than 90 µM.
Still for that read-out and setting: the result for `C=CCN1C[C@H](C(=O)N(CCCN(C)C)C(=O)NCC)C[C@@H]2c3cccc4[nH]cc(c34)C[C@H]21` [Cabergoline] reads 5.04 µM; that for `CCOC(=O)NNc1ccc(N(CC)CC(C)O)nn1` (stereo not drawn) [Cadralazine], more than 50 µM.
In the case of `O=C(O)/C=C/c1ccc(O)c(O)c1` [Caffeic acid], the CC50 at 24 h was more than 90 µM.
On the same count and under the same terms, the same measure for `C=C1CC[C@H](O)C/C1=C/C=C1\CCC[C@]2(C)[C@@H]([C@H](C)CCCC(C)(C)O)CC[C@@H]12` [Calcifediol]: 11.5 µM.
The compound `C=C1/C(=C\C=C2/CCC[C@]3(C)[C@@H]([C@H](C)/C=C/[C@@H](O)C4CC4)CC[C@@H]23)C[C@@H](O)C[C@@H]1O` [Calcipotriene] gave a 50% cytotoxic concentration (CC50) at 24 h of 34.7 µM.
Same read-out and setting: the result for `C=C1/C(=C\C=C2/CCC[C@]3(C)[C@@H]([C@H](C)CCCC(C)(C)O)CC[C@@H]23)C[C@@H](O)C[C@@H]1O` [Calcitriol] reads 20.1 µM; that for `Nc1nc2c(c(=O)[nH]1)N(C=O)C(CNc1ccc(C(=O)N[C@@H](CCC(=O)O)C(=O)O)cc1)CN2` (stereo partly drawn) [Calcium folinate pentahydrate], more than 20 µM.

Still in this series, the particulars now being: rat, gh3-tre-luc cells, AC50 (uM) modified / 1000, Tox21_110001=Tox21_200294; viability, 1 nM T3 present, 24 h.
`CCCC(=O)Cl` [Butyryl chloride] displayed a cytotoxic concentration (CC50) at 24 h of more than 90 µM.

Staying with this series, now noted: rat, gh3-tre-luc cells, AC50 (uM) modified / 1000, Tox21_110001=Tox21_202229; viability, 1 nM T3 present, 24 h.
`[Cl][Cd][Cl]` [Cadmium chloride] returned a 50% cytotoxic concentration (CC50) at 24 h of 26.6 µM.

Still in this series, the particulars now being: rat, gh3-tre-luc cells, AC50 (uM) modified / 1000, Tox21_110001=Tox21_301886; viability, 1 nM T3 present, 24 h.
Regarding `O=[N+]([O-])c1ccc(Nc2ccc(Nc3ccccc3)c(S(=O)(=O)O)c2)c([N+](=O)[O-])c1` [C.I. Acid Orange 3], it took 76.1 µM to reach half-maximal cytotoxicity (CC50 at 24 h).

Staying with this series, now noted: rat, gh3-tre-luc cells, AC50 (uM) modified / 1000, Tox21_110001=Tox21_302342; viability, 1 nM T3 present, 24 h.
On to `Nc1ccc(N=Nc2ccc(-c3ccc(N=Nc4c(S(=O)(=O)O)cc5cc(S(=O)(=O)O)c(N=Nc6ccccc6)c(O)c5c4N)cc3)cc2)c(N)c1` [C.I. Direct Black 38], for which the half-maximal cytotoxic concentration (CC50) at 24 h is more than 60 µM.

Staying with this series, now noted: rat, gh3-tre-luc cells, AC50 (uM) modified / 1000, Tox21_110001=Tox21_303000; viability, 1 nM T3 present, 24 h.
On to `[Cl][Cd][Cl]` [Cadmium chloride], for which the 50% cytotoxic concentration (CC50) at 24 h came out at 32.6 µM.
